According to US6653442B1, “Protegrins” (priority 1993, dated 2003):
Bridge positions count the residues as written; N and C are the ends. Square brackets hold non-standard residues; d marks the D form. Ends that are not written are not given here. Peptide text beside a SMILES is read from it. Sar = CNCC(=O)O

Assays:
[1] = tested on: E. coli ML-35P; assay: Radial diffusion assay in agarose gels, E. coli; assay type: cell-based; conditions: in the presence of 100 mM NaCl
Protocol: Aliquots (66 μl) of each fraction were dried by vacuum centrifugation and resuspended in 6.6 μl of 0.01% acetic acid. […] The units of activity in the radial diffusion assay were measured as described; 10 units correspond to a 1 mm diameter clear zone around the sample well.
(§2) The radial diffusion assay in agarose gels described in Example 1 was also used to test the activity of the purified protegrins.
The antimicrobial activity of the linearalized forms was also compared with that of the native protegrins.
This form of protegrin was tested against E. coli, L. monocytogenes, C. albicans and other microbes in the absence and presence of protease and otherwise as described for the radiodiffusion assay in agarose gels set forth in Example 1.
As described in Example 1, 0.3 mg/ml tripticase soy broth powder and 1% agarose were used as well in the underlay agar. In some cases 100 mM NaCl or RPMI plus 2.5% normal human serum (NHS) was added to the agar.

[2] = tested on: L. monocytogenes; assay: Radial diffusion assay in 25 mM borate buffer, L. monocytogenes; assay type: cell-based
[3] = tested on: Candida albicans; assay: Radial diffusion assay in 25 mM borate buffer, Candida albicans; assay type: cell-based
[4] = Radial diffusion assay in 25 mM borate buffer (Table 4); assay type: cell-based; conditions: buffer (25 mM borate buffer, pH 7.4)
Protocol: Contact lens solutions are typically formulated with borate buffered physiological saline and may or may not contain EDTA in addition. Protegrins in the form of the synthetic PG-3 amide and synthetic PG acid were tested generally in the assay described in Example 1 wherein all underlay gels contain 25 mM borate buffer, pH […] tryptocase soy broth ([…] TSB powder) and […]. Additions included either 100 mM NaCl, 1 mM EDTA or a combination thereof. Other test compounds used as controls were the defensin NP-1 and lysozyme. Dose response curves were determined.

[5] = tested on: C. albicans, strain 820; assay type: cell-based, Candida albicans
Protocol: The units of activity in the radial diffusion assay were measured as described; 10 units correspond to a 1 mm diameter clear zone around the sample well.
as §2
Similarly, using C. albicans as a target organism, underlayers were prepared with 10 mM sodium phosphate with and without 10% normal human serum.

[6] = tested on: lipid polysaccharide (LPS) of E. coli strain 0.55B5; assay: Limulus amebocyte lysate (LAL) test for endotoxin binding; assay type: biochemical
[7] = tested on: N. gonorrhoeae strains FA 19 and F 62; conditions: strains FA 19 and F 62
Protocol: Nonpiliated transparent variants of strains FA 19 and F 62 were propagated on GCB agar plates containing glucose and iron supplements overnight at 37° C. under 3.8% V/V CO2. These strains were chosen for their adaptability to the assay.
The overnight growth is removed from the agar plate and suspended in GCB broth containing supplements and sodium bicarbonate and grown with shaking at 37° C. to mid log phase. The culture is diluted 1:100 in GCB broth to give about 10^6 CFU/ml and serial dilutions were plated onto GCB agar.
Ten μl of each dilution is added to a sterile polystyrene tube containing 90 μl of diluted bacteria and the tubes are shaken at 37° C. for 45 minutes. The contents are serially diluted 1:10 and plated on to GCB agar plates which are incubated in a CO2 incubator. CFU are counted after 24 hours and the log bactericidal activity calculated.

[8] = Autoclaving, retained antimicrobial activity; assay type: physicochemical; conditions: autoclaved
[9] = tested on: E. coli ML-35 (serum sensitive); assay: Underlay gel assay with and without normal human serum, E. coli ML-35; assay type: cell-based; conditions: 10 mM sodium phosphate buffer, pH 7.4
[10] = tested on: Pseudomonas aeruginosa (Psa); assay: Minimal inhibitory concentration, Psa; assay type: cell-based
Protocol: (§1) The minimal inhibitory concentrations (MICs) of a variety of protegrins were determined against the following organisms: methicillin resistant Staphylococcus aureus (MRSA), Pseudomonas aeruginosa (Psa), vancomycin resistant Enterococcus fecium (VREF), Candida albicans (Candid) and Escherichia coli (E. Co), and are shown in Table 9.

[11] = tested on: vancomycin resistant Enterococcus fecium (VREF); assay: Minimal inhibitory concentration, VREF; assay type: cell-based
Protocol: as §1

[12] = tested on: methicillin resistant Staphylococcus aureus (MRSA); assay: Minimal inhibitory concentration, MRSA; assay type: cell-based
Protocol: as §1

[13] = 2.5 μg peptide in 0.2 ml, LPS 0.05 endotoxin unit/ml

Compound	ESTIMATED MINIMAL BACTERICIDAL CONCENTRATIONS ([2]; 25 mM borate buffer) [µg/mL]	ESTIMATED MINIMAL BACTERICIDAL CONCENTRATIONS ([2]; borate buffer + 120 mM NaCl) [µg/mL]	ESTIMATED MINIMAL BACTERICIDAL CONCENTRATIONS ([2]; borate buffer + EDTA & NaCl) [µg/mL]	ESTIMATED MINIMAL FUNGICIDAL CONCENTRATIONS ([3]; 25 mM borate buffer) [µg/mL]	ESTIMATED MINIMAL FUNGICIDAL CONCENTRATIONS ([3]; borate buffer + 120 mM NaCl) [µg/mL]	ESTIMATED MINIMAL FUNGICIDAL CONCENTRATIONS ([3]; borate buffer + EDTA & NaCl) [µg/mL]	ESTIMATED MINIMAL FUNGICIDAL CONCENTRATIONS [4] [µg/mL]	gel formation in LAL test [6, 13]	log reduction in CFU per ml [7] [log]	antimicrobial activity against E. coli, L. monocytogenes and C. albicans after autoclaving [8]	minimal inhibitory concentration (MIC) Psa [10]	minimal inhibitory concentration (MIC) VREF [11]	minimal inhibitory concentration (MIC) MRSA [12]	further results
CC[C@H](C)[C@@H]1NC(=O)[C@H](CCCNC(=N)N)NC(=O)[C@@H]2CSSC[C@@H]3NC(=O)[C@H](C)NC(=O)[C@@H](NC(=O)[C@@H](NC(=O)[C@@H](N)C(C)C)C(C)C)CSSC[C@@H](C(=O)N[C@@H](CCCNC(=N)N)C(=O)N[C@@H](CCCNC(=N)N)C(=O)O)NC(=O)[C@H](CSSC[C@H](NC(=O)[C@H](CC(C)C)NC(=O)[C@H](C)NC(=O)[C@H](CCCNC(=N)N)NC(=O)[C@H](CCCNC(=N)N)NC3=O)C(=O)N[C@@H](CC(C)C)C(=O)N3CCC[C@H]3C(=O)N[C@@H](CCCNC(=N)N)C(=O)N[C@@H](CCC(=O)O)C(=O)N[C@@H](CCCNC(=N)N)C(=O)N[C@@H](CCCNC(=N)N)C(=O)N[C@@H](C)C(=O)NCC(=O)N[C@@H](Cc3ccccc3)C(=O)N2)NC(=O)[C@H](CC(C)C)NC(=O)[C@@H]2CCCN2C(=O)[C@H](Cc2c[nH]cn2)NC(=O)[C@H]([C@@H](C)CC)NC(=O)[C@H](CCCNC(=N)N)NC(=O)CNC(=O)[C@H](CCCNC(=N)N)NC1=O [NP-1, reference compound] (H-VVCACRRALCLPRERRAGFCRIRGRIHPLCCRR-OH; disulfide 3-31, 5-20, 10-30; N-terminus and C-terminus assumed)	20.0	11.0	3.8	23.0	60.0	65.0	35.0	–	–	–	–	–	–	activity against E. coli in NaCl (FIG. 5b) [1]: Neither NP-1 nor HNP-1 have this property; activity against Candida albicans in fetal calf serum (FIG. 5c) ([5]; 90% fetal calf serum): lose their ability to inactivate C. albicans; activity against C. albicans in NaCl (FIG. 5a) ([5]; in the presence of 100 mM NaCl): Neither NP-1 nor HNP-1 have this property
CC(C)C[C@H](NC(=O)CNC(=O)CNC(=O)CNC(=O)[C@@H](N)CCCNC(=N)N)C(=O)N[C@H]1CSSC[C@@H](C(=O)N[C@H](C(=O)NCC(=O)N[C@@H](CCCNC(=N)N)C(=O)O)C(C)C)NC(=O)[C@H](C(C)C)NC(=O)[C@@H]2CSSC[C@H](NC(=O)[C@H](Cc3ccc(O)cc3)NC1=O)C(=O)N[C@@H](CCCNC(=N)N)C(=O)N[C@@H](CCCNC(=N)N)C(=O)N[C@@H](CCCNC(=N)N)C(=O)N[C@@H](Cc1ccccc1)C(=O)N2 [sPG-3 acid] (H-RGGGLCYCRRRFCVCVGR-OH; disulfide 6-15, 8-13; N-terminus assumed)	30.0	7.0	7.0	19.0	9.2	9.3	15.0	trace	> 5	retaining full antimicrobial activity in all cases	–	–	–	gel formation in LAL test ([6]; 5 μg peptide in 0.2 ml, LPS 0.05 endotoxin unit/ml): no gel; gel formation in LAL test ([6]; 10 μg peptide in 0.2 ml, LPS 0.05 endotoxin unit/ml): no gel
CC(C)C[C@H](NC(=O)CNC(=O)CNC(=O)CNC(=O)[C@@H](N)CCCNC(=N)N)C(=O)N[C@H]1CSSC[C@@H](C(=O)N[C@H](C(=O)NCC(=O)N[C@@H](CCCNC(=N)N)C(N)=O)C(C)C)NC(=O)[C@H](C(C)C)NC(=O)[C@@H]2CSSC[C@H](NC(=O)[C@H](Cc3ccc(O)cc3)NC1=O)C(=O)N[C@@H](CCCNC(=N)N)C(=O)N[C@@H](CCCNC(=N)N)C(=O)N[C@@H](CCCNC(=N)N)C(=O)N[C@@H](Cc1ccccc1)C(=O)N2 [sPG-3 amide] (H-RGGGLCYCRRRFCVCVGR-NH2; disulfide 6-15, 8-13; N-terminus assumed)	21.0	5.7	5.2	19.0	7.7	7.0	13.0	no gel	> 5	retaining full antimicrobial activity in all cases	–	–	–	gel formation in LAL test ([6]; 0.5 μg peptide, 0.05 E.U.): no gel; gel formation in LAL test ([6]; 1.0 μg peptide, 0.05 E.U.): no gel; gel formation in LAL test ([6]; 1.0 μg peptide, 0.10 E.U.): no gel; gel formation in LAL test ([6]; 1.0 μg peptide, 0.25 E.U.): no gel; gel formation in LAL test ([6]; 2.5 μg peptide, 0.05 E.U.): no gel; gel formation in LAL test ([6]; 2.5 μg peptide, 0.10 E.U.): no gel; gel formation in LAL test ([6]; 2.5 μg peptide, 0.25 E.U.): no gel
CC(C)C[C@H](NC(=O)[C@H](CCCNC(=N)N)NC(=O)CNC(=O)CNC(=O)[C@@H](N)CCCNC(=N)N)C(=O)N[C@H]1CSSC[C@@H](C(=O)N[C@H](C(=O)NCC(=O)N[C@@H](CCCNC(=N)N)C(N)=O)C(C)C)NC(=O)[C@H](C(C)C)NC(=O)[C@@H]2CSSC[C@H](NC(=O)[C@H](Cc3ccc(O)cc3)NC1=O)C(=O)N[C@@H](CCCNC(=N)N)C(=O)N[C@@H](CCCNC(=N)N)C(=O)N[C@@H](CCCNC(=N)N)C(=O)N[C@@H](Cc1ccccc1)C(=O)N2 [synthetic PG-1]	–	–	–	–	–	–	–	–	–	–	–	–	–	minimal bacteriocidal concentration ([9]; absence of serum): approximately 1.0 μg/ml; minimal bacteriocidal concentration ([9]; presence of […] normal human serum): about 0.1 μg/ml
R-G-G-R-L-C-Y-C-R-X-R-F-C-V-C-V-G-R (X=NMeG) (RGGRLCYCR[Sar]RFCVCVGR-NH2; ends and bridges not checked) [IB-342]	–	–	–	–	–	–	–	–	–	–	1.67	0.83	4	–
R-G-G-R-L-C-Y-C-R-X-R-F-C-V-C-V-G-R-OH (X=NMeG) (RGGRLCYCR[Sar]RFCVCVGR-OH; ends and bridges not checked) [IB-341]	–	–	–	–	–	–	–	–	–	–	2	1	5.33	–
